The values that follow come from US8618074B2, “GPCR enhanced neuroprotection to treat brain injury” (Board of Regents of the University of Texas System, priority 2007, dated 2013).

In the assay the test system is astrocytes. Kind of assay: Astrocyte survival under t-buOOH oxidative stress in the absence of neurons. The format is cell-based, mouse. On the procedure:
To determine whether P2Y-R enhanced mitochondrial metabolism in astrocytes affected neuronal resistance to oxidative stress, we prepared co-cultures of neurons and astrocytes using corning transwell-clear permeable supports, which physically separates the two cell-types by ˜1 mm (# 07-200-170, Fisher scientific). Primary cultures of astrocytes were directly prepared in transwell supports until they were ˜70% confluent. Mouse cortical neurons were then cultured onto glass bottom mattek plates and maintained in B-27/Neurobasal Medium to control glia contamination to less than 0.5% (Invitrogen). After four days, co-cultures were treated with t-buOOH (100 μM) for 4 hours with and without pre-stimulation of ATP (2 μM, 10 minutes). Cells were then stained with the DNA intercalating dye Hoechst 33342 (10 μg/ml, Molecular Probes, #H-3570) and calcein AM (2 μM, Molecular Probes, #C3100). […] We then tested the neuroprotective affects of isoform specific purinergic ligands 2-MeSADP(P2Y1-R) and UTP(P2Y2-R). FIG. 6A depicts histogram plots of the percentage of neurons alive when cocultured with young or old astrocytes. FIG. 6B depicts histogram plots of the percentage of neurons alive pretreated with either 2-MeSADP (2 μM) or UTP (50 μM) for 10 min. A ten-minute pre-treatment of astrocytes with either 2-MeSADP (2 μM), or UTP (50 μM) was equally protective against oxidative stress induced cell death. The % neurons alive after 4.5 hours of t-buOOH treatment was 51±4% (n=1664 neurons, pooled from 4 experiments) for untreated controls, 70±2% (n=2541 neurons, pooled from 4 experiments) for 2-MeSADP and 71±3% (n=1189 neurons, pooled from 4 experiments) for UTP treated co-cultures. […] The % astrocytes alive after 4.5 hours of t-buOOH treatment, in the absence of neurons, was 60±4% (n=294 cells) for control, 77±4% (n=294) for 2-MeSADP and 79±3% (n=333) for UTP treated astrocytes.
It should be noted that stimulation of neuroprotective response in astrocytes is not restricted to signaling through P2Y receptors. For example we have shown that administration of the membrane permeable IP3 analog, IP3BM, is capable of protecting astrocytes from oxidative damage. Thus, it appears possible that any stimulus capable of evoking IP3-mediated calcium release in astrocytes is equally suitable for application in the present treatment methods. To test this possibility, astrocyte cultures subjected to oxidative stress were treated with either 2-MeSADP, or the metabotropic glutamate receptor agonist (1 S, 3 R)-1-aminocyclopentane-1,3-dicarboxylic acid (ACPD), or were left untreated.
To directly examine the role of IP3 gated Ca^2+ release in P2Y-R enhanced astrocyte protection, we used a membrane permeant butyryloxymethyl ester of IP3 (IP3-BM). Cultures of astrocytes were exposed to IP3-BM and Ca^2+ levels were assessed using 2-photon imaging of Fura 2. Ca^2+ increases in response to IP3-BM application were easily detected, but they occurred over a much slower time course than those initiated by ATP treatment. This was not unexpected because of the slow process of IP3-BM movement across the lipid bilayer as well as the time needed to cleave the ester and accumulate IP3 in the cell. Because of the slower time course, we pretreated astrocytes for 20 minutes prior to exposing them to the oxidant stress t-BuOOH. […] The protective effect of IP3-BM treatment was blocked by the IP3R inhibitor, XeC. […]

In the case of `CSc1nc(N)c2ncn([C@@H]3O[C@H](COP(=O)(O)OP(=O)(O)O)[C@@H](O)[C@H]3O)c2n1` [2-MeSADP], the “% astrocytes alive” value (absence of neurons, 4.5 hours of t-buOOH, 2-MeSADP or UTP) came out at 77±4%. Besides, where the note is “astrocyte cultures subjected to oxidative stress, versus untreated”, the “astrocyte resistance to oxidative stress” value is “enhanced”.
